Laboratory results: ChEMBL document CHEMBL1128607, “Structure-based design of novel HIV protease inhibitors: carboxamide-containing 4-hydroxycoumarins and 4-hydroxy-2-pyrones as potent nonpeptidic inhibitors” (J Med Chem, 1995)

molecular target: Human immunodeficiency virus type 1 protease (Human immunodeficiency virus 1, UniProt Q72874); assay: Ability to inhibit HIV protease purified and refolded from Escherichia coli inclusion bodies

Row | Compound | Ki
1 | CCC(Cc1ccccc1)c1cc(O)c(C(c2cccc(NC(=O)Cc3ccncc3)c2)C2CC2)c(=O)o1 (stereo not drawn) | 44 nM
2 | CCC(Cc1ccccc1)c1cc(O)c(C(c2cccc(NC(=O)[C@H](Cc3c[nH]cn3)NC(=O)OC(C)(C)C)c2)C2CC2)c(=O)o1 (stereo partly drawn) | 4 nM
3 | CCC(c1cccc(C(=O)N[C@H](C(=O)NCc2ccccn2)C(C)CC)c1)c1c(O)oc2ccccc2c1=O (stereo partly drawn) | 400 nM
4 | CCC(c1cccc(C(=O)NCc2nc3ccccc3[nH]2)c1)c1c(O)oc2ccccc2c1=O (stereo not drawn) | 4400 nM
5 | CCC(c1cccc(NC(=O)CCNC(=O)OC(C)(C)C)c1)c1c(O)oc2cc(OC)ccc2c1=O (stereo not drawn) | 170 nM
6 | CC(C)(C)OC(=O)NCCC(=O)Nc1cccc(C(c2c(O)oc3ccccc3c2=O)C2CC2)c1 (stereo not drawn) | 86 nM
7 | COc1ccc2c(O)c(C(c3ccccc3)C3CC3)c(=O)oc2c1 (stereo not drawn) | 170 nM
8 | CCC(Cc1ccccc1)c1cc(O)c(C(c2cccc(NC(=O)[C@H](C)NC(=O)OC(C)(C)C)c2)C2CC2)c(=O)o1 (stereo partly drawn) | 15 nM
9 | CCC(Cc1ccccc1)c1cc(O)c(C(c2cccc(NC(=O)[C@H](Cc3cn(S(=O)(=O)c4ccc(C)cc4)cn3)NC(=O)OC(C)(C)C)c2)C2CC2)c(=O)o1 (stereo partly drawn) | 19 nM
10 | O=c1oc2ccccc2c(O)c1C(c1ccccc1)C1CC1 (stereo not drawn) | 350 nM
11 | CCC(c1cccc(NC(=O)CCNC(=O)OC(C)(C)C)c1)c1c(O)c2ccccc2oc1=O (stereo not drawn) | 280 nM
12 | CCC(c1cccc(NC(=O)[C@H](C)NC(=O)OC(C)(C)C)c1)c1c(O)c2ccccc2oc1=O (stereo partly drawn) | 170 nM
13 | CCC(c1cccc(NC(=O)CCCNC(=O)OC(C)(C)C)c1)c1c(O)c2ccccc2oc1=O (stereo not drawn) | 1600 nM
14 | CCC(c1ccccc1)c1c(O)c2ccc(OC)cc2oc1=O (stereo not drawn) | 560 nM
15 | CCC(c1cccc(NC(=O)[C@@H]2CCCN2C(=O)OC(C)(C)C)c1)c1c(O)c2ccccc2oc1=O (stereo partly drawn) | 3600 nM
16 | CCC(c1cccc(NC(=O)CCn2ccc3ccccc32)c1)c1c(O)c2ccccc2oc1=O (stereo not drawn) | 110 nM
17 | CCC(c1cccc(NC(=O)CNC(=O)OC(C)(C)C)c1)c1c(O)c2ccccc2oc1=O (stereo not drawn) | 160 nM
18 | COc1ccc2c(O)c(C(c3cccc(NC(=O)CCNC(=O)OC(C)(C)C)c3)C3CC3)c(=O)oc2c1 (stereo not drawn) | 28 nM
